The melting point is the temperature of the solid-liquid transition.

The structures appear in SMILES notation.

In turn, `CON=C(Cl)c1ccccc1OCc1ccc(Cl)cc1Cl` had a melting point of 91 to 92 °C.
Next, `C=CC(=O)N(CCCCCC)C[C@H](O)[C@@H](O)[C@H](O)[C@H](O)CO`: 86 to 88 °C; `CCCCCCCCCCCCCCOc1ccc(CC(=O)Cl)cc1OC`: 56 to 57 °C.
Compound `C=C(C)OC(=O)N1c2cnccc2NC(=O)C1C` (racemic) showed a melting point of 236 °C.
Next, `COc1ccc2c(c1)Sc1ccc(C(C)C(N)=O)cc1C(=O)C2` (stereo unspecified): 154 to 155 °C.
Next, `COc1ccc(SCc2ccc(-c3csnn3)cc2)cc1`: 117 to 119 °C; `CC(=O)C12OC1CC1C3CC=C4CC(O)CCC4(C)C3CCC12C` (stereo unspecified): 194 to 196 °C; `COC(=O)Cn1c(C)cc(O)c([N+](=O)[O-])c1=O`: 187 °C.
To `Nc1nc(N)c([N+](=O)[O-])c(OCc2ccccc2)n1` belongs 194 to 195 °C; to `N#CCCNC(=S)C1=CC(CF)(CF)Oc2cc(Cl)c(Cl)cc21`, 154 to 155 °C; to `Cc1c(CCCCCCC(=O)O)cccc1C(=O)c1ccc(Cl)cc1`, 84 °C.
In the case of `CC(C)Cc1ccc(CCCN(C)[C@H]2CC[C@H](c3ccc4[nH]c(=O)oc4c3)CC2)cc1`, the melting point lay within 162 to 165 °C.
The compound `CCn1nc(Br)c([N+](=O)[O-])c1CCN` returned a melting point of 84.9 to 87.4 °C.
The compound `COc1cc2c(cc1OCc1ccccc1)CCN(Cc1cccc(C)c1)C2` yielded a melting point of 81 to 82 °C.
`CN(C)CC1CCc2cc(OCc3ccc(NC(=O)c4cc5ccccc5s4)cc3)ccc2C1` (stereo unspecified) showed a melting point of 165 to 169 °C.
To `CC(=O)c1ccc(S(=O)(=O)Nc2ccc(C(F)(F)F)cn2)cc1` belongs 179 to 180 °C.
Next, `CC(C)(C)OC(=O)NCCSCC1(C)NC(=O)NC1=O` (stereo unspecified): 134 to 136 °C; `Cc1cccc2c1N(C)CS2=O` (stereo unspecified): 122 to 124 °C.
The compound `CCN(CC)CC1COCCN1CCNC(=O)N1c2ccccc2C(=O)Nc2cccnc21` (stereo unspecified) returned a melting point of 150 to 151 °C.
Next, `CS(=O)(=O)OCC1OC2CC(CC(OS(C)(=O)=O)C2)O1` (stereo unspecified): 137 to 138 °C.
Next, `COc1nc(SC)nc(OC)c1C1CC(=O)C=C(O)C1` (stereo unspecified): 195 to 200 °C.
To `CCCc1ccccc1Sc1c(O)cc(-c2ccccc2)oc1=O` belongs 158 to 160 °C; to `O=C1N[C@H](C(=O)NCCO[N+](=O)[O-])CO1`, 102 to 103 °C; to `O=C(O)COc1ccc2c(c1)sc1cc3ccccc3c(-c3ccc(OC(Cc4ccccc4)C(=O)O)cc3)c12` (stereo unspecified), 191 to 201 °C.
`C[C@@H](O)[C@H]1CC[C@H]2[C@@H]3C=CC4=CC(=O)C=C[C@]4(C)[C@H]3CC[C@]12C` returned a melting point of 162 to 164 °C.
Next, `COc1ccc(-c2[nH]nc3c2C(=O)c2c(NC(=O)C4CCC4)cccc2-3)cc1`: 297 °C; `Cc1c(-c2ccc([N+](=O)[O-])o2)nc(N)n2c(C)nnc12`: 290 °C.
Take `Nc1c(C(=O)CCC(=O)O)cccc1C(=O)c1ccccc1`: the melting point fell in the range of 161 to 162 °C.
Next, `COc1cc(NCCN(Cc2ccccc2)Cc2ccccc2)ccc1C(N)=O`: 136 to 138 °C.
Next, `O=C1C(O)SCN1c1cccc([N+](=O)[O-])c1` (stereo unspecified): 129 to 131 °C; `Cc1oc(-c2ccccc2)nc1C(=O)COc1ccc(CC2SC(=O)NC2=O)cc1` (stereo unspecified): 168 to 169 °C; `CC(C)(F)c1nc[nH]c(=O)c1Cl`: 168 to 171 °C.
The compound `CC(C)CC(NC(=O)C(Cc1c[nH]cn1)NC(=O)C(Cc1cccc2ccccc12)NC(=O)OCc1ccccc1)C(O)CC(=O)O` (stereo unspecified) showed a melting point of 191 to 192 °C.
Next, `CC(C)(C)OC(=O)Nc1ccc(I)cc1N`: 127 to 130 °C.
Take `COC(=O)c1c(N)ncn1C1c2ccsc2CC1(C)C` (stereo unspecified): the melting point is 161 to 162 °C.
Compound `O=Cc1ccc(CSCCN2C(=O)c3ccccc3C2=O)o1` had a melting point of 76 to 77 °C.
